Laboratory results published in patent publication US10829441B2, “Reactive oxygen species-sensitive nitric oxide synthase inhibitors for the treatment of ischemic stroke” (The University of Toledo, priority 2017, dated 2020).
“And” between values parts separate entries of the source, which are not always exact repeats. Equal values may be shown once. “Also recorded” adds a separate entry of the source.

Experiments:
[1] = tested on: LPS-stimulated SIM-A9 cells; assay: Griess assay of nitrite in LPS-stimulated SIM-A9 microglia; type: cell-based, mouse; settings: LPS 100 ng/mL; for nitrite / NO production after LPS (in words): 1.0 μM to 50 μM, 24 hr (FIG. 14); for nitrite after LPS (in words): 24 hr (FIG. 15B); for decrease in nitrite: 24 hr
Description: (§1) Human neuroblastoma SH-SY5Y cells and SIM-A9 mouse microglia (ATCC) were separately cultured on poly-D-lysine coated plates in 1:1 Dulbecco's Modified Eagle Medium/Ham's F12 (DMEM/F12) medium containing 5% fetal bovine serum, 5% horse serum, and penicillin-streptomycin. Cultures were stored in a 37° C. incubator with a 5% CO2 atmosphere. Cells were allowed to adhere overnight prior to subjection to experimental systems. 1×10^6 cells SH-SY5Y cells on 96-well plates were used for OGD experiments, and SIM-A9 cells were plated at a density of 1×10^6 on 24-well plates for Griess experiments.
SIM-A9 cells were treated with 100 ng/mL lipopolysaccharide (LPS, Sigma) along with vehicle or drug treatment for 24 hr. Conditioned medium was then diluted 1:1 with griess reagent (0.4% naphthylethylenediamine dihydro-chloride, and 4% sulphanilamide in 10% phosphoric acid), and analyzed by colorimetry at 540 nm after […]. Nitrite levels were reported as a ratio to LPS-treated, vehicle control.

SH-SY5Y cells [2] = assay: Oxygen-glucose deprivation (OGD) viability of SH-SY5Y cells (PrestoBlue); type: cell-based, Human; settings: for viability relative to vehicle (in words) / viability, ratio to vehicle control: 1.5 hr OGD, 24 hr treatment
Description: as §1
(§2) Growth medium was removed from SH-SY5Y cells and replaced with sterile HBSS (140 mM NaCl, 3.5 mM KCl, 0.4 mM KH2PO4, 5 mM NaHCO3, 1.3 mM CaCl2, 1.2 mM MgSO4, 20 mM HEPES, pH 7.4, bubbled with 95%/5% N2/CO2), and placed in an air-tight container subsequently purged three times with 95%/5% N2/CO2. The container was then placed in a 37° C. incubator for 1.5 hr. After OGD, the cells were returned to a normoxic environment, and medium was replaced with growth medium and vehicle or treatment for 24 hr to simulate reperfusion. Sham cells were left in growth medium under a normoxic environment. Viability was measured by adding 10% Presto-Blue® Cell Viability Reagent (Thermo Fisher) for 30 min, and reading fluorescence at 560 nm/590 nm excitation/emission. Viability is reported as a ratio to vehicle-treated control, and readings result from separate OGD experiments (e.g. n=6 was from 6 different OGD assays). The experimental furoxan IS-1-41 was used as a positive control for OGD viability due to its reproducible protection in this paradigm.

[3] = tested on: phospho-Akt/total Akt ratio; assay: Western blot of SH-SY5Y cells exposed to OGD: pAkt/Akt; type: cell-based, Human; settings: 1.0 μM, 24 hr treatment
[4] = HPLC-PDA analysis of nitrone decomposition in radical-generating systems; type: physicochemical; settings: for decomposition to aldehyde in .OH (Fe—H2O2) system (in words) / decomposition to aldehyde in O2.^−/HO2. (KO2) system (in words) / decomposition to aldehyde in ONOO^−/HCl system (in words): 24 hr incubation at 37° C.
Description: To a stirring solution of 5 (5.0 mg, 1.0 eq) in 785 μL PBS was added 20 μL 6 N HCl at 37° C. Peroxynitrite (200 μL of a 50 mM solution in 0.3 M NaOH, 0.5 eq) was added in 50 μL aliquots over 5 min. The reaction was allowed to stir for 1 hr and monitored by HPLC-PDA. The solution was extracted with CH2Cl2 (2×0.5 mL) and the aqueous fractions were pooled then lyophilized. Addition of ACN (1.0 mL) to the white solid followed by filtration allowed separation from the insoluble salts. Lyophilization afforded 6 as a white solid (1.2 mg, 33.7%), NMR (CD3OD, 400 MHz): δ 10.04 (1H, s), δ 7.93-7.95 (2H, m), δ 7.71-7.65 (2H, m), 4.58 (2H, s), δ 2.30 (3H, s).
EPR spectra were collected at ambient temperature with microwave power 12.6 mW, frequency 9.86 GHz, receiver gain 1.0×10^5 or 1.0×10^4, modulation amplitude 1 G, scan time 20.48 sec, time constant 40.96 msec, and sweep width 120 G. Phosphate buffered saline (PBS) used for EPR was supplemented with diethylenetriaminepent-acetic acid (DTPA, 100 μM). ROS-generating solutions were rapidly added to solutions of indicated spin trap and taken up in 50 μL glass capillary tubes for EPR spectral acquisition. For HPLC-PDA analysis, solutions were allowed to incubate for 24 hr at 37° C., then diluted 1:1000 in 95:5 mobile phase A:B, and analyzed as above. Benzaldehyde (Sigma) was run separately as a control to compare to PBN-ROS systems and confirm PBN decomposition.
A 50 μL final 20% PBS/DMSO solution of 35 mM 5 or PBN contained 10 μL saturated KO2 DMSO.
A 50 μL final 30% PBS/DMSO solution of 35 mM 5 or PBN contained 90 mM FeSO4 and 1% H2O2.
A solution of ONOO^− in 0.3 M NaOH (Cayman Chemical) was determined to be 50 mM by absorbance at 302 nm using the literature extinction coefficient (1670 M^−1cm^−1). A 50 μL final 30% PBS/DMSO solution of 5 or PBN contained 10 mM ONOO^− at pH˜6 (HCl).

3-Nitrotyrosine (3-NT) = assay: Western blot of SH-SY5Y cells exposed to OGD: 3-nitrotyrosine; type: cell-based, Human; settings: 1.0 μM, 24 hr treatment, vs vehicle
cleaved caspase-3 = assay: Western blot of SH-SY5Y cells exposed to OGD: cleaved caspase-3; type: cell-based, Human; settings: 1.0 μM, 24 hr treatment, vs vehicle
SH-SY5Y cells [5] = assay: OGD-induced formation of 6 from 5 in SH-SY5Y cells by LC-MS/MS; type: cell-based, Human; settings: for level of 6 as 6:5 AUC: cell lysate (intracellular); for level of 6: supernatant
Description: as §2
(§3) Synthesized 5, and purchased 4(1H-Imidazol-1-yl)benzaldehyde (IBA, Sigma) were used to determine LC-MS/MS fragmentation. A solution of 5+ONOO^−/HCl from EPR studies was used for 6 fragmentation. MRM analysis of IBA (m/z 173.10→91.10, 104.10, 117.05; RT: 4.13 min), 5 (m/z 248.20→148.00, 134.15, 190.05; RT: 4.81 min), and 6 (m/z 177.00→119.10, 90.95, 65.15; RT: 3.87 min) were determined. A standard curve for 5 was generated using pure samples applied to blank matrix (0.01 μM, 0.1 μM, 0.5 μM, 1.0 μM, and 5.0 μM; R2=0.99) using the above HPLC solvents and LC curve at 0.4 mL/min.
(§4) In vitro supernatant samples were spiked with internal standard (200 μL 500 nM IBA in 2% FA) and used as collected, while cells were detached by trypsin, centrifuged (14 k rpm, 5 min, 4° C.) to isolate the pellet, then lysed by sonication (Sonic Dismembrator 500, Fisher) in 1 mL cold PBS+internal standard. Blood samples (100 μL) were spiked with internal standard, and centrifuged to collect the supernatant. Brain samples were weighed, homogenized by a Bullet Blender Storm (Next Advance Inc.) in 500 μL cold PBS+internal standard for 1 min at 4° C., then centrifuged to collect the supernatant. All samples were then worked up by solid phase extraction (Evolute Ex-press ABN cartridge, 30 mg/l mL, Biotage) using a Vac-master manifold (Biotage). Columns were washed with dH2O (1 mL), and analytes were eluted with MeOH (1 mL) and evaporated to dryness by high flow air purge. Samples were reconstituted in 200 μL 95:5 mobile phase A:B and analyzed by LC-MS/MS (2.0 μL injection volume). All samples were run in duplicate, and AUC for 5 and 6 were normalized to the intra-run IBA AUC to account for loss during workup. 5 concentrations were determined using std. curve, while 6 was expressed as a percentage of 5 AUC.

[6] = tested on: cerebral blood flow (CBF); assay: Laser Doppler cerebral blood flow (CBF) over the MCA of anesthetized mice; type: in vivo, C57BL/6 mice; settings: for time point at which CBF increased: isoamyl nitrate vs low dose of 5 (1 mg/kg), intravenous
Description: (§5) Animals were anesthetized and the incision was performed as above to expose the temporal bone, through which the MCA was visible. The end of a fiber optic cable fitted to a MoorVMS-LDF Laser Doppler Monitor (Moor Instruments) was positioned in place over the MCA. The baseline CBF as flux was monitored for 5 min prior to intravenous injection by lateral tail vein of normal saline vehicle, […] (20 mg/kg), or 5. Measurements were taken every 5 minutes in triplicate for each animal, and reported as ratio to baseline. Animals were sacrificed at 25 min by CO2 inhalation, blood was collected into K2EDTA coated tubes (BD Microtainer®), and brains were rapidly dissected out and frozen on dry ice for LC-MS/MS analysis.

[7] = Plasma and brain levels of 5 and 6 by LC-MS/MS 25 min after intravenous administration; type: in vivo, C57BL/6 mice
Description: as §5, §3, §4

[8] = tested on: permanent MCA occlusion (pMCAO); type: in vivo
[9] = 25 min after intravenous 5, n=6

CC(=N)NCc1cccc(CN)c1 [1400W, reference compound]
nitrite / NO production after LPS (in words) [1]: anti-inflammatory ability
nitrite after LPS (in words) ([1]; 1.0 μM): attenuated

CC(C)(C)[N+]([O-])=Cc1ccccc1 [PBN, N-tert-butyl-α-phenylnitrone, reference compound]
viability relative to vehicle (in words) (SH-SY5Y cells [2]; 0.05 μM to 100 μM): did not approach significance at any concentration tested
phospho-Akt/total Akt ratio (in words) [3]: increase was also observed; also recorded: increase in Akt phosphorylation, although not significant
nitrite / NO production after LPS (in words) [1]: not observed to cause a reduction in nitrate
nitrite after LPS (in words) ([1]; 1.0 μM): attenuated
decomposition to aldehyde in .OH (Fe—H2O2) system (in words) [4]: minor formation
decomposition to aldehyde in O2.^−/HO2. (KO2) system (in words) [4]: Significant BnA formation
decomposition to aldehyde in ONOO^−/HCl system (in words) [4]: Significant BnA formation

CC(=N)NCc1cccc(/C=[N+](\[O-])C(C)(C)C)c1 [compound 5, N-tert-butyl-α-(3-[ethanimidamidomethyl]phenyl)nitrone]
viability, ratio to vehicle control (SH-SY5Y cells [2]; 0.1 μM): 1.21 times greater than vehicle
viability, ratio to vehicle control (SH-SY5Y cells [2]; 1.0 μM): 2.57 times greater than vehicle
viability relative to vehicle (in words) (SH-SY5Y cells [2]; 100 μM): decline to baseline; also recorded: not observed to be toxic, but rather non-neuroprotective
optimal dose (highest neuroprotection) (SH-SY5Y cells [2]; dose-finding study 0.05 μM to 100 μM): 1.0 µM
phospho-Akt/total Akt ratio ([3]; vs vehicle): 4.1 times higher
3-NT ameliorated (3-Nitrotyrosine (3-NT)): 48%
cleaved caspase-3 reduction (cleaved caspase-3): 47%
nitrite / NO production after LPS (in words) [1]: not observed to lower NO production
nitrite after LPS (in words) ([1]; 1.0 μM): attenuated
cell permeability (in words) (SH-SY5Y cells [5]): cell permeable
CBF over 20 min ([6]; 1 mg/kg intravenous): 126%±4.6%
CBF over 20 min ([6]; 10 mg/kg intravenous): 102%±0.7%
time point at which CBF increased [6]: 5 min
Kp at 25 min ([7]; C57BL/6, mouse, in vivo): 0.029 ± 0.01
half-life (in words) ([7]; mouse, in vivo): short half-life
tolerability / adverse effects ([8]; 10 mg/kg and 1 mg/kg intravenous): well tolerated
forelimb grip strength (in words) ([8]; 24, 48, 72 hr after pMCAO): improved grip strength
rota rod performance (in words) ([8]; 24, 48, 72 hr after pMCAO): No significant differences
Neurological deficit scoring (NDS), 28-point system ([8]; 72 hr after pMCAO, 10 mg/kg iv at 3 and 6 hr, then 1 mg/kg twice daily): 4.2±0.4
decrease in infarct volume compared to vehicle ([8]; TTC staining 72 hr after pMCAO, 10 mg/kg iv at 3 and 6 hr, then 1 mg/kg twice daily): > 30% and 37%
conversion of 5 to 6 by HPLC-PDA ([4]; 0.50 eq ONOO^−, PBS/HCl pH 6, 37° C., after one hour): 95.4%
decomposition to aldehyde in .OH (Fe—H2O2) system (in words) [4]: substantial formation of 6; also recorded: Minor 6 formation
decomposition to aldehyde in O2.^−/HO2. (KO2) system (in words) [4]: substantial formation of 6; also recorded: significant 6 formation
decomposition to aldehyde in ONOO^−/HCl system (in words) [4]: complete conversion; also recorded: no observed 5 remaining

CC(=N)NCc1cccc(C=O)c1 [compound 6, N-[(3-formylphenyl)methyl]ethanimidamide]
nitrite / NO production after LPS (in words) [1]: dose-dependent decrease in nitrite
decrease in nitrite ([1]; 1.0 μM): ~19%
decrease in nitrite ([1]; 50 μM): −33%
level of 6 as 6:5 AUC (SH-SY5Y cells [5]; OGD-exposed cells treated 24 hr with 10 μM 5): 129 % 6:5 AUC
level of 6 as 6:5 AUC (SH-SY5Y cells [5]; sham cells treated 24 hr with 10 μM 5): 29 % 6:5 AUC
level of 6 (SH-SY5Y cells [5]; OGD-exposed cells treated with 5): 18.6 % of 5 AUC
level of 6 (SH-SY5Y cells [5]; sham cells treated with 5): 7.88 % of 5 AUC
level of 6 in brain [7, 9]: 24.5%±0.1%
level of 6 in plasma [7, 9]: 12.7%±0.2%

CC(C)CCO[N+](=O)[O-] [isoamyl nitrate, reference compound]
CBF over 20 min ([6]; 20 mg/kg intravenous): 111%±4.0%
time point at which CBF increased [6]: 20 min
